We go through one compound from article PMC9646970 (Poultry Science, 2022).

Where two headings read alike, the source gives them in different places.

Usually AUC stands for concentration integrated over time. The bioavailability is dose-corrected exposure relative to a reference, in per cent. Read a low bioavailability as poor availability. The Cmax is the highest concentration seen after dosing. A word on the Tmax: it is the time at which the peak concentration occurs.

Data set [1] in a line: Population pharmacokinetic analysis. It is filed as in vivo, broiler chickens. As to conditions: for AUC: geometric mean.
The format of data set [2] is in vivo, broiler chickens.
The format of data set [3] is in vivo, broiler chickens. The note with it: single ENR administration (i.v. 10 mg/kg or p.o. 20 mg/kg) with or without CsA or AC.
For data set [4] the following is noted: cited from earlier work.
[5] abbreviates: population fixed effect, p.o. administration.
The mark [6] stands for this setting: oral administration, same dose (20 mg/kg), ref Xiao et al., 2018.

Take `CCN1CCN(c2cc3c(cc2F)c(=O)c(C(=O)O)cn3C2CC2)CC1` [Enrofloxacin, enrofloxacin]: the AUC in data set [1] (Ross hybrid (Cornish × Plymouth Rock), plasma, iv, 10 mg/kg, AUCi.v. – activated charcoal, enrofloxacin i.v. 10 mg/kg + activated charcoal p.o. 1 g/kg) is 13300 ng·h/mL; in data set [1] (Ross hybrid (Cornish × Plymouth Rock), plasma, iv, 10 mg/kg, AUCi.v. – cyclosporine A, enrofloxacin i.v. 10 mg/kg + cyclosporine A p.o. 50 mg/kg), 16200 ng·h/mL; in data set [1] (Ross hybrid (Cornish × Plymouth Rock), plasma, po, 20 mg/kg, AUCp.o. – control, enrofloxacin p.o. 20 mg/kg alone), 31200 ng·h/mL; in data set [1] (Ross hybrid (Cornish × Plymouth Rock), plasma, po, 20 mg/kg, AUCp.o. – cyclosporine A, enrofloxacin p.o. 20 mg/kg + cyclosporine A p.o. 50 mg/kg), 37400 ng·h/mL; in data set [2] (Ross hybrid (Cornish × Plymouth Rock), plasma, po, 20 mg/kg, AUC, enrofloxacin in plasma, enrofloxacin p.o. 20 mg/kg + cyclosporine A p.o. 50 mg/kg, geometric mean (min–max)), 40400 ng·h/mL; in data set [4] (i.v. administration at 10 mg/kg, ref Atef et al., 2020) it was 15200 ± 1080 ng·h/mL. The bioavailability in data set [1] (Ross hybrid (Cornish × Plymouth Rock), plasma, po, 20 mg/kg) amounted to 100%. The “lag time (time to pass the crop and the stomach to reach the absorption site)” value in data set [1] (p.o. administration, on average) is given as 3.24 min. Besides, the “βCl BW (covariate effect of body weight on clearance)” value in data set [1] (population fixed effect, log-normalized BW) is given as 0.77. Also, in data set [1] (setting [5]), the “tvTlag (typical value of lag time)” value is 0.054 h. Also, in data set [1] (setting [5]), the “tvka (typical value of absorption rate constant)” value was 1.26 h⁻¹. The Cmax was 5620 ng/mL in data set [2] (Ross hybrid (Cornish × Plymouth Rock), plasma, po, 20 mg/kg, Cmax, enrofloxacin in plasma, enrofloxacin p.o. 20 mg/kg + cyclosporine A p.o. 50 mg/kg, geometric mean (min–max)) and 2860 ± 520 ng/mL in data set [4] (setting [6]). Besides, the Tmax in data set [2] (Ross hybrid (Cornish × Plymouth Rock), plasma, po, 20 mg/kg, Tmax, enrofloxacin in plasma, enrofloxacin p.o. 20 mg/kg + cyclosporine A p.o. 50 mg/kg, geometric mean (min–max)) turned out to be 1.35 h. In data set [2] (enrofloxacin p.o. 20 mg/kg + CsA p.o. versus enrofloxacin p.o. alone), the “increase of AUC with CsA co-administration” value is listed as “approx. 20%”. The adverse effects result in data set [3] is listed as “No adverse effects were observed”. The “oral bioavailability change with verapamil co-administration” value in data set [4] (co-administered with the P-gp inhibitor verapamil, ref Guo et al., 2013) is recorded as “nearly doubled”. The AUC0-24h in data set [4] (setting [6]) is 30.07 ± 4.64 µg/h/mL.
